This is an account of results in paper PMC5564600 (Oncotarget, 2017).

Like-named read-outs stand apart in the source and are kept apart here.

Common to all, as to experiment: biochemical
Assay type in all cases: binding

The target in experiment [1] is T1, panel of 442 kinases (Homo sapiens, UniProt O75582).
T1 construct: purchased Ambit Biosciences (scanMAXX KINOMEscan)

In experiment [2] the target is T2, panel of 442 kinases (Homo sapiens, UniProt O94804).
T2 construct: purchased Ambit Biosciences (scanMAXX KINOMEscan)
The conditions noted are these: kinase LOK; for remaining activity at 1 µM: read-out: % of control at 1 µM.

For experiment [3], the target named is T3, panel of 442 kinases (Homo sapiens, UniProt P08581, Y1235D).
T3 construct: purchased Ambit Biosciences (scanMAXX KINOMEscan)
The conditions noted are these: kinase MET(Y1235D); for remaining activity at 1 µM: read-out: % of control at 1 µM.

Experiment [4] addresses T4, panel of 442 kinases (Homo sapiens, UniProt P19784).
T4 construct: purchased Ambit Biosciences (scanMAXX KINOMEscan)
The conditions noted are these: CSNK2A2; for remaining activity at 1 µM: read-out: % of control at 1 µM.

The target of experiment [5] is T5, panel of 442 kinases (Homo sapiens, UniProt P31152).
T5 construct: purchased Ambit Biosciences (scanMAXX KINOMEscan)
The conditions noted are these: ERK4; for remaining activity at 1 µM: read-out: % of control at 1 µM.

For experiment [6], the target named is T6, panel of 442 kinases (Homo sapiens, UniProt P36507).
T6 construct: purchased Ambit Biosciences (scanMAXX KINOMEscan)
The settings on record: kinase MEK2; for remaining activity at 1 µM: read-out: % of control at 1 µM.

The target of experiment [7] is T7, panel of 442 kinases (Homo sapiens, UniProt P78368).
T7 construct: purchased Ambit Biosciences (scanMAXX KINOMEscan)
The settings on record: CSNK1G2; for remaining activity at 1 µM: read-out: % of control at 1 µM.

The target in experiment [8] is T8, panel of 442 kinases (Homo sapiens, UniProt Q13470).
T8 construct: purchased Ambit Biosciences (scanMAXX KINOMEscan)
T8 sequence (Q13470 1-666): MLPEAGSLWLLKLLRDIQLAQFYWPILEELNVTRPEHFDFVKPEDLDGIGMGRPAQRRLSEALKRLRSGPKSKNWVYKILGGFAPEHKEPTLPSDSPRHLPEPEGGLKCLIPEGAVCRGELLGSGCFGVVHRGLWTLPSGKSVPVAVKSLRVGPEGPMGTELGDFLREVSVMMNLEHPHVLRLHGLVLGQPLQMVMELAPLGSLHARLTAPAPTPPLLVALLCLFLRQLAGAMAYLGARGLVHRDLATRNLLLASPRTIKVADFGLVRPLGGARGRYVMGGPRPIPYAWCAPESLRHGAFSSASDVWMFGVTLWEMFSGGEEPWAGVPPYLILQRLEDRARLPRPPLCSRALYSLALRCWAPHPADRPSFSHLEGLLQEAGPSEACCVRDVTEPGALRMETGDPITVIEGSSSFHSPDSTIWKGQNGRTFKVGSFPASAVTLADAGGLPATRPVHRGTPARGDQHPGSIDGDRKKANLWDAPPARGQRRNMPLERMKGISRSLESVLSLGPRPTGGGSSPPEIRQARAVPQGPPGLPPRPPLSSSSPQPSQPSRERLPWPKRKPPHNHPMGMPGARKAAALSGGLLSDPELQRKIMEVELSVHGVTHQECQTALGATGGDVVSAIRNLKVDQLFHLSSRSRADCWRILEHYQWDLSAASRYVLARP
The settings on record: kinase TNK1; for remaining activity at 1 µM: read-out: TNK1 (% of control at 1 µM).

Experiment [9] deals with T9, panel of 442 kinases (Homo sapiens, UniProt Q16512).
T9 construct: purchased Ambit Biosciences (scanMAXX KINOMEscan)
The settings on record: kinase PKN1; for remaining activity at 1 µM: read-out: PKN1 (% of control at 1 µM).

In experiment [10] the target is T10, panel of 442 kinases (Homo sapiens, UniProt Q92772).
T10 construct: purchased Ambit Biosciences (scanMAXX KINOMEscan)
T10 sequence (Q92772 1-493): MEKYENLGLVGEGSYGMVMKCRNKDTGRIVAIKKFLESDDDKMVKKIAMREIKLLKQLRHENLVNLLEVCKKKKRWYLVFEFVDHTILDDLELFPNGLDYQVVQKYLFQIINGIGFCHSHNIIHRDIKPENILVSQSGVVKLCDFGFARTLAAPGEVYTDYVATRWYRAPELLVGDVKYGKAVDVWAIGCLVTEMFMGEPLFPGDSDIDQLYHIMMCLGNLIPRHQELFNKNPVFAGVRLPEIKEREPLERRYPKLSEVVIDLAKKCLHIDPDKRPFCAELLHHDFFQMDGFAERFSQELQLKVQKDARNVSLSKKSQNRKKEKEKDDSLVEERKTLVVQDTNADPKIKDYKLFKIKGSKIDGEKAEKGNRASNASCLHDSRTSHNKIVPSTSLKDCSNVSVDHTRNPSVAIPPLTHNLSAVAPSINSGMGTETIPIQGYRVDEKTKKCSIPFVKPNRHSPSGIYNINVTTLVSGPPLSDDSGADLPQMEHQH
The conditions noted are these: CDKL2; for remaining activity at 1 µM: read-out: % of control at 1 µM.

The target of experiment [11] is T11, panel of 442 kinases (Homo sapiens, UniProt Q9H093).
T11 construct: purchased Ambit Biosciences (scanMAXX KINOMEscan)
T11 sequence (Q9H093 1-628): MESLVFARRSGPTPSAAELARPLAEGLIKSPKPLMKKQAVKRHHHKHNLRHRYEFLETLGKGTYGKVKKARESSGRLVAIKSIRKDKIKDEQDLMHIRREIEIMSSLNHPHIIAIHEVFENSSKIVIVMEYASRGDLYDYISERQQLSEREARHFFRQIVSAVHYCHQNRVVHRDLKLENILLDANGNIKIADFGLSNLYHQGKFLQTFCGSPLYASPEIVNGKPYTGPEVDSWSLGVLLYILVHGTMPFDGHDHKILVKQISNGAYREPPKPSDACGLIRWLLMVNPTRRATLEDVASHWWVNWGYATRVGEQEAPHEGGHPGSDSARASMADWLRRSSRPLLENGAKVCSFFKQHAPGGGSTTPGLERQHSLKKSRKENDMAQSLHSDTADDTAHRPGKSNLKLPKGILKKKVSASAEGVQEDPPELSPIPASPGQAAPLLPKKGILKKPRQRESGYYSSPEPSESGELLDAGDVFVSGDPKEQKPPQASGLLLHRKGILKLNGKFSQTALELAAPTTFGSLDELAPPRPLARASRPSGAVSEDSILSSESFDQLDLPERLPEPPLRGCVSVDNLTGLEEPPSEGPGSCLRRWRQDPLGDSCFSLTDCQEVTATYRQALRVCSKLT
The settings on record: kinase SNARK; for remaining activity at 1 µM: read-out: SNARK (% of control at 1 µM).

Experiment [12] has as its target T12, panel of 442 kinases (Homo sapiens, UniProt Q9P286).
T12 construct: purchased Ambit Biosciences (scanMAXX KINOMEscan)
The settings on record: kinase PAK7; for remaining activity at 1 µM: read-out: % of control at 1 µM.

Where [13] appears, read: kinase RPS6KA5(Kin.Dom.1-N-terminal), read-out: RPS6KA5(Kin.Dom.1-N-terminal) (% of control at 1 µM).
The mark [14] stands for this setting: kinase RPS6KA5(Kin.Dom.2-C-terminal), read-out: RPS6KA5(Kin.Dom.2-C-terminal) (% of control at 1 µM).
The mark [15] stands for this setting: 10 µM, read-out: % of control at 10 µM.

T3 sequence (P08581 25-1390 Y1235D): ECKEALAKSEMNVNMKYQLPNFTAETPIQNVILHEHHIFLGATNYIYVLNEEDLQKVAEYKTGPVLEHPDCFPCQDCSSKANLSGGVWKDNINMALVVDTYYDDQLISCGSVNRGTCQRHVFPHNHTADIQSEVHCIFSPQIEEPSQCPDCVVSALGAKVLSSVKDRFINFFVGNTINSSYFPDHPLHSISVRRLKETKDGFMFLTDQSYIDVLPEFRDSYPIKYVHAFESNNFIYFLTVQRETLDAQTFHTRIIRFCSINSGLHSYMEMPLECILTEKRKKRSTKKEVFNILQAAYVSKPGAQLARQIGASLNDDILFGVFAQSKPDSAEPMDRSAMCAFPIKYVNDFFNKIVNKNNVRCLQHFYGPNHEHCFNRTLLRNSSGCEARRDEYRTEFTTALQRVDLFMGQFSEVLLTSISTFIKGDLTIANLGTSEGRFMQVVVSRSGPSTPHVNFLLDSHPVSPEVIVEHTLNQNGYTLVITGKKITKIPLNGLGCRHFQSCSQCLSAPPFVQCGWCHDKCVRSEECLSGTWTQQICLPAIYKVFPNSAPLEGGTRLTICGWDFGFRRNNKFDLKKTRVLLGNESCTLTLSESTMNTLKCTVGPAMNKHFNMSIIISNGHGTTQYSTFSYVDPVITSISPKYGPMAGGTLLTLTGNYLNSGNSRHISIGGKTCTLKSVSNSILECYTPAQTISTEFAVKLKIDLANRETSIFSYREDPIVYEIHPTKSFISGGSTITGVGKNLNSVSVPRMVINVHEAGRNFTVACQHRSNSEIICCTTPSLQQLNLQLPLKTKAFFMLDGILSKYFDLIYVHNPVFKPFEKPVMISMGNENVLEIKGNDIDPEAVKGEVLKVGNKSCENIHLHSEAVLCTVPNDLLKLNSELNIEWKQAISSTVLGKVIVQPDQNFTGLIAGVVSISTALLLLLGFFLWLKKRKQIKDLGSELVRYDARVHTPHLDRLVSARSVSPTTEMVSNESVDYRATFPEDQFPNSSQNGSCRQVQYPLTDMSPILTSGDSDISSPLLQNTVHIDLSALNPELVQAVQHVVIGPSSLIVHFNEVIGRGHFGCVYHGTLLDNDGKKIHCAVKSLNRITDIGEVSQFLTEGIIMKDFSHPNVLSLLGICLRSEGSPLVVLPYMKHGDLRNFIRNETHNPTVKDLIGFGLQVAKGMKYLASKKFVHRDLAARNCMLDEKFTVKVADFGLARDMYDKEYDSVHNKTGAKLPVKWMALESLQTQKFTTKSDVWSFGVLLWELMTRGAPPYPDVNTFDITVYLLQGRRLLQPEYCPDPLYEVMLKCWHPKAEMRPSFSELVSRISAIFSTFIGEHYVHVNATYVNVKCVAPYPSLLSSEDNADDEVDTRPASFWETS
T9 sequence (Q16512 whole entry): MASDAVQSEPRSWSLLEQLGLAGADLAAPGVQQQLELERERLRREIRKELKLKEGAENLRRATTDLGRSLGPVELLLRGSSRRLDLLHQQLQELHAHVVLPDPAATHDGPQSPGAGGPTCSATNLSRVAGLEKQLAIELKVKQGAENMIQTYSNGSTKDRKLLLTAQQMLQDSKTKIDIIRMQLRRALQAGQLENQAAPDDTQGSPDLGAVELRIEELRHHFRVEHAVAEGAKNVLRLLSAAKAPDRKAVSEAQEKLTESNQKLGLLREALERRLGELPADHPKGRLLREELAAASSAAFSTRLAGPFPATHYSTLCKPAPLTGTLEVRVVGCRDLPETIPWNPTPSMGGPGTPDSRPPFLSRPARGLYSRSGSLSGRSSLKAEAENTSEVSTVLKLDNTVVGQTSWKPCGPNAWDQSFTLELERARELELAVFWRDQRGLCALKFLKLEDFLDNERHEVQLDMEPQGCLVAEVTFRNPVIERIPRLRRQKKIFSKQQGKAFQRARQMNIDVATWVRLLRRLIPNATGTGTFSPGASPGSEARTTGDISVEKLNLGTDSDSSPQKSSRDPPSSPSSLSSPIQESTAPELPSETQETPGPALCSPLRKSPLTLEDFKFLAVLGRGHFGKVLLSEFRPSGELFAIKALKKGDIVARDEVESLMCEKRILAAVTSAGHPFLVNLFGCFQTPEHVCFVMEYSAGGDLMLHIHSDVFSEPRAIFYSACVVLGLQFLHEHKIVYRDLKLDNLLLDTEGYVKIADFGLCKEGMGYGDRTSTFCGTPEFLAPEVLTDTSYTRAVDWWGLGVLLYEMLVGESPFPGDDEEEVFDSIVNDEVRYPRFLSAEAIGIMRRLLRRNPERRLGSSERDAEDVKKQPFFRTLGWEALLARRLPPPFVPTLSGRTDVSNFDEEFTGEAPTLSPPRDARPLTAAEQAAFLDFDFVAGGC
T1 sequence (O75582 whole entry): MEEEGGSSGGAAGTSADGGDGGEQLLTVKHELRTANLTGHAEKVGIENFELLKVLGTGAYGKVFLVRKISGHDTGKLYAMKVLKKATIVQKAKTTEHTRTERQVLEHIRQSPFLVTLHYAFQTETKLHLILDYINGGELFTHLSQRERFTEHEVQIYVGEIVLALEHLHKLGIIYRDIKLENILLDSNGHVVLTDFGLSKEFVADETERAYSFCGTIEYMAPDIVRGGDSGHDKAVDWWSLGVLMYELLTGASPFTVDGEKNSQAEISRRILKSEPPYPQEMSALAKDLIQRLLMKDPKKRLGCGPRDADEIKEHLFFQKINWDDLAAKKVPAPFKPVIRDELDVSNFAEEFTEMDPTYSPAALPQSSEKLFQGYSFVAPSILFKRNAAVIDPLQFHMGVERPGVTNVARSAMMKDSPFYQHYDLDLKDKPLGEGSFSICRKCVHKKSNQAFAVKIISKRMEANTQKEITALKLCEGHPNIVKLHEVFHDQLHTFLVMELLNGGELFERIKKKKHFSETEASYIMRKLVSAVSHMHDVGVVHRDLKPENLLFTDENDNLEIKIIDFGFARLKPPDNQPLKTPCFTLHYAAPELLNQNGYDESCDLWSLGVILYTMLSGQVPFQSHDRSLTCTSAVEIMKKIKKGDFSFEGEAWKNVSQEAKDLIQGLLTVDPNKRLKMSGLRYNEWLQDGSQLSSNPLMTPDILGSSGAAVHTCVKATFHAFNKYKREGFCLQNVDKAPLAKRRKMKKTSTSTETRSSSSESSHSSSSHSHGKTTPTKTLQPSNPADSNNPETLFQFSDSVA
T7 sequence (P78368 whole entry): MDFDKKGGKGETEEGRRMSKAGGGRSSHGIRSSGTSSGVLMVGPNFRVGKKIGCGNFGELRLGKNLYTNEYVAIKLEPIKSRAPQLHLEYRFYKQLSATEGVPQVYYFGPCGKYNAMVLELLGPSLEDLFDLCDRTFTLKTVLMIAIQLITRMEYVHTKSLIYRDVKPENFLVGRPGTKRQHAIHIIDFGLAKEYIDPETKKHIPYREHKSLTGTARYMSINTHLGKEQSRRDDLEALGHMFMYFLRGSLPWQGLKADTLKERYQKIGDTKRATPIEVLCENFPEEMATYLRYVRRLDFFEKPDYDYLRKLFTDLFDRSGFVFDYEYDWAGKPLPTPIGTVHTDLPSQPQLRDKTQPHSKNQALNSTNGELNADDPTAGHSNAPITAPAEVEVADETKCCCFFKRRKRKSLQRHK
T6 sequence (P36507 whole entry): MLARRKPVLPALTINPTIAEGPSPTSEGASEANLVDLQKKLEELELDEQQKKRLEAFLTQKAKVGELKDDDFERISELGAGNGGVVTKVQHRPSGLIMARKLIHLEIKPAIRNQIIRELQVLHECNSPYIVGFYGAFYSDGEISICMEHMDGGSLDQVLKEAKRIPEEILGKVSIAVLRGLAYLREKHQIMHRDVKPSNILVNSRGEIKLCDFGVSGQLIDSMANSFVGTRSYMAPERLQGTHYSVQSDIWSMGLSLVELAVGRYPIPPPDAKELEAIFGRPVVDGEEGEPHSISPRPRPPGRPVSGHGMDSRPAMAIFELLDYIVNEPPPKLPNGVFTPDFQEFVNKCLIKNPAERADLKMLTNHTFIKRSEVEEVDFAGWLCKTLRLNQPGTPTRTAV
T2 sequence (O94804 whole entry): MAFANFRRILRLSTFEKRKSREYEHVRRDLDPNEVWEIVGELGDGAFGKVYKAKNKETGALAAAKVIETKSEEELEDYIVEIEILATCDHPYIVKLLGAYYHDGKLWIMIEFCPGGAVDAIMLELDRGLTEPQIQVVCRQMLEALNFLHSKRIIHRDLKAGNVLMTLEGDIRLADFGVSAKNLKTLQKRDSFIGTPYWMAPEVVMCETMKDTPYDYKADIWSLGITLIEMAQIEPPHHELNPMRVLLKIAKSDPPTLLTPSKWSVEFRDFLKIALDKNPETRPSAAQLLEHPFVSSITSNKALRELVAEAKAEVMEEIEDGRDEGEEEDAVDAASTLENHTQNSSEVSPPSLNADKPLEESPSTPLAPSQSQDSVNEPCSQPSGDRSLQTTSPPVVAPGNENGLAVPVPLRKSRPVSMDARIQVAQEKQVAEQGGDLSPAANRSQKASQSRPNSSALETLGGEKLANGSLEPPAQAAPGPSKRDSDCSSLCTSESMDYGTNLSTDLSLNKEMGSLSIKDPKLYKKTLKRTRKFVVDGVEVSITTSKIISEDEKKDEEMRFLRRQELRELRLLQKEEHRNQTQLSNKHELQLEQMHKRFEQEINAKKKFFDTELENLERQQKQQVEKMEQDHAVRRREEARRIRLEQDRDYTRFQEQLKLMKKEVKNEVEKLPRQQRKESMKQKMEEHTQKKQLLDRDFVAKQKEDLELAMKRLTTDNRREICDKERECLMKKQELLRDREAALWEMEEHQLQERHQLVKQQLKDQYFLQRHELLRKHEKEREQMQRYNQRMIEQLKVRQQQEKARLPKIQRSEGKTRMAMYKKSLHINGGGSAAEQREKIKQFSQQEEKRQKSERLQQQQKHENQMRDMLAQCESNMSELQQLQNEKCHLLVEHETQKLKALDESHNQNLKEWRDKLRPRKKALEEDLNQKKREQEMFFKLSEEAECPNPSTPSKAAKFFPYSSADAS

`Nc1cc(C(F)(F)F)c(-c2cc(N3CCOCC3)nc(N3CCOCC3)n2)cn1` [Buparlisib]: the remaining activity at 1 µM on panel of 442 kinases [1] (setting [13]) amounted to 100%; at panel of 442 kinases [1] (setting [14]) it was 74%; on panel of 442 kinases [2] it was 92%; at panel of 442 kinases [3] it was 100%; at panel of 442 kinases [4] it was 84%; at panel of 442 kinases [5] it was 100%. In addition, the remaining activity at 1 µM amounted to 100% at panel of 442 kinases [6]; 100% on panel of 442 kinases [7]; 100% at panel of 442 kinases [8]; 89% at panel of 442 kinases [9]; 66% on panel of 442 kinases [10]; 100% at panel of 442 kinases [11]. Besides, on panel of 442 kinases [12], the remaining activity at 1 µM came to 78%. The remaining activity at 10 µM on panel of 442 kinases [1] (kinase RPS6KA5(Kin.Dom.1-N-terminal), read-out: RPS6KA5(Kin.Dom.1-N-terminal) (% of control at 10 µM)) stood at 100%; at panel of 442 kinases [1] (kinase RPS6KA5(Kin.Dom.2-C-terminal), read-out: RPS6KA5(Kin.Dom.2-C-terminal) (% of control at 10 µM)), 96%; on panel of 442 kinases [2] (setting [15]) it was 100%; on panel of 442 kinases [3] (setting [15]), 99%; on panel of 442 kinases [4] (setting [15]) it was 75%; on panel of 442 kinases [5] (setting [15]), 100%. Moreover, the remaining activity at 10 µM was determined as 100% on panel of 442 kinases [6] (setting [15]); 100% at panel of 442 kinases [7] (setting [15]); 100% on panel of 442 kinases [8] (10 µM, read-out: TNK1 (% of control at 10 µM)); 100% on panel of 442 kinases [9] (10 µM, read-out: PKN1 (% of control at 10 µM)); 100% at panel of 442 kinases [10] (setting [15]); 100% on panel of 442 kinases [11] (10 µM, read-out: SNARK (% of control at 10 µM)). The remaining activity at 10 µM at panel of 442 kinases [12] (setting [15]) was found to be 69%.

Regarding `Cn1c(=O)n(-c2ccc(C(C)(C)C#N)cc2)c2c3cc(-c4cnc5ccccc5c4)ccc3ncc21` [Dactolisib, 2-methyl-2-[4-(3-methyl-2-oxo-8-quinolin-3-yl-2,3-dihydroimidazo[4,5-c]quinolin-1-yl)-phenyl] propionitrile], the remaining activity at 1 µM on panel of 442 kinases [1] (setting [13]) came to 64%; on panel of 442 kinases [1] (setting [14]), 100%; on panel of 442 kinases [2] it was 100%; at panel of 442 kinases [4] it was 99%; at panel of 442 kinases [5] it was 100%; on panel of 442 kinases [6], 73%. For the same compound, the remaining activity at 1 µM on panel of 442 kinases [7] was determined as 80%; at panel of 442 kinases [8], 88%; at panel of 442 kinases [9], 100%; on panel of 442 kinases [10], 26%; at panel of 442 kinases [11], 34%; at panel of 442 kinases [12] it was 73%.

As for `COc1ncc(-c2ccc3nccc(-c4ccnnc4)c3c2)cc1NS(=O)(=O)c1ccc(F)cc1F` [Omipalisib], the remaining activity at 1 µM was 100% at panel of 442 kinases [1] (setting [13]); 100% on panel of 442 kinases [1] (setting [14]); 100% at panel of 442 kinases [2]; 100% at panel of 442 kinases [3]; 75% at panel of 442 kinases [4]; 100% at panel of 442 kinases [5]. In addition, the remaining activity at 1 µM on panel of 442 kinases [6] turned out to be 99%; at panel of 442 kinases [7], 100%; on panel of 442 kinases [8], 100%; at panel of 442 kinases [9] it was 94%; at panel of 442 kinases [10], 90%; at panel of 442 kinases [11] it was 100%. The remaining activity at 1 µM at panel of 442 kinases [12] was found to be 100%.

Take `FC(F)c1nc2ccccc2n1-c1nc(N2CCOCC2)nc(N2CCOCC2)n1` [ZSTK474, 2-(difluoromethyl)-1-[4,6-di(4-morpholinyl)-1,3,5-triazin-2-yl]-1H-benzimidazole]: the remaining activity at 1 µM was 81% on panel of 442 kinases [1] (setting [13]); 100% at panel of 442 kinases [1] (setting [14]); 100% at panel of 442 kinases [2]; 92% at panel of 442 kinases [3]; 88% on panel of 442 kinases [4]; 85% at panel of 442 kinases [5]. Besides, the remaining activity at 1 µM at panel of 442 kinases [6] was found to be 97%; on panel of 442 kinases [7], 90%; at panel of 442 kinases [8] it was 86%; on panel of 442 kinases [9], 90%; on panel of 442 kinases [10], 100%; on panel of 442 kinases [11], 100%. In addition, on panel of 442 kinases [12], the remaining activity at 1 µM is 100%.
